Assay results taken from BigSolDB 2.1.

COC(=O)/C=C(\C)N[C@@H](C(=O)[O-])c1ccc(O)cc1.[K+]
Settings	solubility (mole fraction)
in 2-pentanol, 293.25 K	6.22e-05
in 2-pentanol, 298.28 K	7.86e-05
in 2-pentanol, 303.35 K	9.99e-05
in 2-pentanol, 308.19 K	0.000117
in 2-pentanol, 313.15 K	0.000141
in 2-pentanol, 318.29 K	0.000169
in 2-pentanol, 323.15 K	0.000196
in 2-pentanol, 328.34 K	0.000233
in 2-pentanol, 333.05 K	0.000267
in 2-pentanol, 338.24 K	0.00031
in 2-pentanol, 343.26 K	0.000354
in ethanol, 293.25 K	0.000405
in ethanol, 298.26 K	0.000437
in ethanol, 303.25 K	0.000478
in ethanol, 308.19 K	0.000519
in ethanol, 313.09 K	0.00056
in ethanol, 318.26 K	0.000629
in ethanol, 323.11 K	0.000681
in ethanol, 328.18 K	0.000753
in ethanol, 333.41 K	0.000834
in ethanol, 338.31 K	0.000916
in ethanol, 343.35 K	0.00104
in isopropanol, 293.25 K	5.74e-05
in isopropanol, 298.23 K	6.38e-05
in isopropanol, 303.05 K	7.22e-05
in isopropanol, 308.41 K	8.4e-05
in isopropanol, 313.15 K	9.66e-05
in isopropanol, 318.26 K	0.000112
in isopropanol, 323.15 K	0.00013
in isopropanol, 328.19 K	0.00015
in isopropanol, 333.35 K	0.000173
in isopropanol, 338.27 K	0.000198
in isopropanol, 343.25 K	0.000225
in methanol, 293.15 K	0.00346
in methanol, 298.22 K	0.0037
in methanol, 303.15 K	0.00396
in methanol, 308.19 K	0.00424
in methanol, 313.35 K	0.00454
in methanol, 318.27 K	0.00485
in methanol, 323.35 K	0.00519
in methanol, 328.16 K	0.00552
in methanol, 333.35 K	0.006
in n-butanol, 293.15 K	9.97e-05
in n-butanol, 298.31 K	0.00011
in n-butanol, 302.95 K	0.000122
in n-butanol, 308.19 K	0.000139
in n-butanol, 312.95 K	0.000158
in n-butanol, 318.16 K	0.000181
in n-butanol, 323.25 K	0.000207
in n-butanol, 328.29 K	0.000237
in n-butanol, 333.17 K	0.000268
in n-butanol, 338.32 K	0.000304
in n-butanol, 342.95 K	0.000339
in n-pentanol, 293.05 K	8.48e-05
in n-pentanol, 298.25 K	0.000102
in n-pentanol, 303.25 K	0.000119
in n-pentanol, 308.19 K	0.000134
in n-pentanol, 313.07 K	0.000152
in n-pentanol, 318.26 K	0.00017
in n-pentanol, 323.25 K	0.00019
in n-pentanol, 328.17 K	0.000209
in n-pentanol, 333.25 K	0.000226
in n-pentanol, 338.13 K	0.000252
in n-pentanol, 343.35 K	0.000279
in n-propanol, 293.15 K	0.000178
in n-propanol, 298.23 K	0.000191
in n-propanol, 303.05 K	0.000206
in n-propanol, 308.18 K	0.000228
in n-propanol, 313.05 K	0.000256
in n-propanol, 318.29 K	0.00028
in n-propanol, 323.05 K	0.000306
in n-propanol, 328.21 K	0.000345
in n-propanol, 333.25 K	0.000382
in n-propanol, 338.34 K	0.000427
in n-propanol, 343.35 K	0.000476
in sec-butanol, 293.35 K	3.51e-05
in sec-butanol, 298.24 K	4.38e-05
in sec-butanol, 303.05 K	5.87e-05
in sec-butanol, 308.17 K	6.64e-05
in sec-butanol, 313.05 K	8.11e-05
in sec-butanol, 318.36 K	9.62e-05
in sec-butanol, 323.23 K	0.000113
in sec-butanol, 328.26 K	0.000132
in sec-butanol, 333.15 K	0.000151
in sec-butanol, 338.28 K	0.000174
in sec-butanol, 343.23 K	0.000197
